Reference: US9073944B2, “Cyclic diaminopyrimidine derivatives” (Merck Patent GmbH, priority 2012, dated 2015)

Legend:
SYK = SYK (Homo sapiens, UniProt P43405); experiment: SYK flash plate assay; assay type: biochemical; conditions: class symbols; read-out: IC50 SYK (enzyme assay)
Procedure: The kinase assay is performed either as 384-well Flashplate assay (for e.g. Topcount measurement) or as 384-well Image-Flashplate assay (for LEADseeker measurement). • 2.5 nM SYK, 400 nM Biotin-Aha-Aha-KEDPDYEWPSAKK • and 10 μM ATP (spiked with 0.3 μCi 33P-ATP/well) are incubated in a total volume of 50 μl (60 mM Hepes, 10 mM MgCl2, 1.2 mM Dithiothreitol, 0.02% Brij35, 0.1% BSA, pH 7.5) with or without test compound for 1 hours at 30° C. The reaction is stopped with 25 μl 200 mM EDTA. After 30 Min at 30° C. the liquid is removed and each well washed thrice with 100 μl 0.9% sodium chloride solution. Non-specific reaction is determined in presence of 0.1 μM Staurosporine. Radioactivity is measured with Topcount (when using Flashplates) or with LEADseeker (when using Image-Flashplates) respectively. Results (e.g. IC50-values) are calculated with program tools provided by the IT-department (e.g. Symyx Assay Explorer, Genedata Screener). In vivo Assays CIA

GCN2 = GCN2 (Homo sapiens, UniProt Q9P2K8); experiment: GCN2 enzyme assay (TR-FRET Lanthascreen, GFP-eIF2alpha substrate); assay type: biochemical; conditions: class symbols
Procedure: APCI-MS (atmospheric pressure chemical ionisation-mass spectrometry) (M+H)^+. • Mass spectrometry (MS): EI (electron impact ionisation) M^+ • FAB (fast atom bombardment) (M+H)^+ • ESI (electrospray ionisation) (M+H)^+ • m.p.=melting point • LCMS Method: • Column: ZORBAX SB-C8 30*4.6 mm, 3.5 um • Mobile Phase A: Water+0.03% TFA • Mobile Phase B: ACN+0.05% TFA • Gradient: 5-95% B in 2.5 minutes • Flow: 2.0 mL/min • Wavelength: UV1:220 nm, UV2:254 nm • Mass Scan: 100-900 Da GCN2: Assay Principle & Conditions
This assay can quantificate the activity of the serin kinase GCN2 (general control non-derepressible-2).
This kinase is involved in the stress metabolism of cells. It is activated upon starvation (amino acid depletion). Its natural substrate is eIF2a (eukaryotic initiation factor 2 alpha subunit), a translation factor, which gets activated (phosphorylated) by GCN2 in case of an amino acid bottleneck in the cells. This in turn leads to a halt of the protein synthesis. Inhibition of GCN2 results in stopping this mechanism: The cell can not stop protein production upon “starvation” stress.
The assay is run in two steps: the enzymatic reaction and the detection step. In the first step GCN2 is incubated with 10 μM ATP and 80 nM of the GFP-labelled substrate eIF2alpha at room temperature.
The enzymatic reaction is stopped by addition of EDTA. The amount of phosphorylated eIF2alpha is determined by TR-FRET (Lanthascreen): A complex is formed consisting of antibody and GFP labelled phospho-eIF2a, which allows a FRET upon exitation at 340 nm.
The GCN2-activity is directly proportional to the ratio of fluorescence units at the emission wavelength 520 nm (phosphopeptide-sensitive wavelength=emission of GFP) to the units at 495 nm (reference wavelength=emission of Terbium-chelate).
Final Concentrations in the Enzymatic Reaction

GCN2, sequence (Q9P2K8 whole entry, species assumed): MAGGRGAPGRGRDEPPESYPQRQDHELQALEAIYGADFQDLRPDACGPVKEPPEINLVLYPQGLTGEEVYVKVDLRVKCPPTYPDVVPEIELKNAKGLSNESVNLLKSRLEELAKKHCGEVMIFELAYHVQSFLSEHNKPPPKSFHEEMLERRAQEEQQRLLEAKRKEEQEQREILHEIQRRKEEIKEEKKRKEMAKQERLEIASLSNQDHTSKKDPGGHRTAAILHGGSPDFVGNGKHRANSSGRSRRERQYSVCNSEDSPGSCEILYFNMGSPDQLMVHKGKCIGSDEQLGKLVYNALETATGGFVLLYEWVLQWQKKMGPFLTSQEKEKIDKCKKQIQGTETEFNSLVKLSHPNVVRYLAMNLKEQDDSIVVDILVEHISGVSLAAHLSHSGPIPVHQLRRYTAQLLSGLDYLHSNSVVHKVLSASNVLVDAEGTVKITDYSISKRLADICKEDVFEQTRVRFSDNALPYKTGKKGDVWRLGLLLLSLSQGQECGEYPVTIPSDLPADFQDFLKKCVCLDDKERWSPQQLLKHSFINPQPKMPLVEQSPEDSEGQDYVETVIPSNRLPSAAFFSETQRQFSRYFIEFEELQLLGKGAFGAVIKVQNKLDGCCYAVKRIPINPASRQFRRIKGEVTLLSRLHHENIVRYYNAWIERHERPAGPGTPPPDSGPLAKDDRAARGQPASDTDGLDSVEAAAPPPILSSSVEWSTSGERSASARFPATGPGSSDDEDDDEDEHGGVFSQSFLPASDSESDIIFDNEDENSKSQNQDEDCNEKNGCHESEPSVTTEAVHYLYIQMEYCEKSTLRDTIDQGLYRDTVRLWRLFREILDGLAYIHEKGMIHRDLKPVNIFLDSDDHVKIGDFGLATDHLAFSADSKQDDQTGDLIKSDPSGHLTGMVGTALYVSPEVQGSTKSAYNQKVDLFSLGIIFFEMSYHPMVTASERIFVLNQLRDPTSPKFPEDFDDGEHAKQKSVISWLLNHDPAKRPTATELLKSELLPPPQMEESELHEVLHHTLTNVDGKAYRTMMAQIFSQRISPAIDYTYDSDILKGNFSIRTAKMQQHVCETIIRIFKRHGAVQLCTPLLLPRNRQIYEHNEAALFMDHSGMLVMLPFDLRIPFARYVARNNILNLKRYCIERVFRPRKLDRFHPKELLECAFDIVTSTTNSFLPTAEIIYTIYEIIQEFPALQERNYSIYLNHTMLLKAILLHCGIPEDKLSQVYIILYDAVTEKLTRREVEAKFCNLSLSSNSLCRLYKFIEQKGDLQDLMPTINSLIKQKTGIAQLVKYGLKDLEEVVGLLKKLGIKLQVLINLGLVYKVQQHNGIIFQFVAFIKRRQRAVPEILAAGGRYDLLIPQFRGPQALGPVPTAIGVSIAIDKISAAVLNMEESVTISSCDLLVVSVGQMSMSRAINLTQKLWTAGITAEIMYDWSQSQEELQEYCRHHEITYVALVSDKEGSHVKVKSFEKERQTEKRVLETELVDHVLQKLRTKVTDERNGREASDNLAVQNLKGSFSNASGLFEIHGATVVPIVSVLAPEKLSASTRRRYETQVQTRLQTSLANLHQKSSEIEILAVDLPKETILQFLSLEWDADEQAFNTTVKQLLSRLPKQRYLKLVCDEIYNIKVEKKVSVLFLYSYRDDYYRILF

Row | SMILES | IC50 (SYK) [µM] | IC50 (GCN2) [µM]
1 | CC12Oc3ccc(cc3NC1=O)Nc1nc(ncc1F)Nc1cccc(c1)CCNC2=O (stereo not drawn) [Compound 12] | 3 to 50 | 3 to 50
2 | COc1cc2cc(c1)C(=O)NCCNC(=O)C1(C)Oc3ccc(cc3NC1=O)Nc1nc(ncc1F)N2 (stereo not drawn) [Compound B23] | 0.3 to 3 | 0.3 to 3
3 | CN1CC(=O)Nc2cccc(c2)Nc2ncc(F)c(n2)Nc2ccc3c(c2)NC(=O)[C@](C)(O3)C1=O (single isomer, unassigned) [Compound 17] | < 0.3 | 0.3 to 3
4 | CC12CCOC(=O)NCc3cccc(c3)Nc3ncc(F)c(n3)Nc3ccc(c(c3)NC1=O)O2 (stereo not drawn) [Compound 9] | < 0.3 | –
5 | COc1cc2ccc1OCCCCNC(=O)[C@@H](Cc1ccccc1)NC(=O)[C@]1(C)Oc3ccc(cc3NC1=O)Nc1nc(ncc1F)N2 [Compound B20] | 0.3 to 3 | 3 to 50
6 | COc1cc2ccc1OCCCNC(=O)C1(C)Oc3ccc(cc3NC1=O)Nc1nc(ncc1F)N2 (stereo not drawn) [Compound B11] | 3 to 50 | 0.3 to 3
7 | CC12Oc3ccc(cc3NC1=O)Nc1nc(ncc1F)Nc1cccc(c1)S(=O)(=O)NCCC(=O)NCCCNC2=O (stereo not drawn) [Compound B18] | – | 0.3 to 3
8 | CC12Oc3ccc(cc3NC1=O)Nc1nc(ncc1F)Nc1ccc(cc1)OCCC(=O)NCCCNC2=O (stereo not drawn) [Compound B15] | 0.3 to 3 | –
9 | CC12Oc3ccc(cc3NC1=O)Nc1nc(ncc1F)Nc1ccc(cc1)OCCCC(=O)NCCCNC2=O (stereo not drawn) [Compound B16] | 0.3 to 3 | –
10 | COc1cc2ccc1OCCCCNC(=O)C1(C)Oc3ccc(cc3NC1=O)Nc1nc(ncc1F)N2 (stereo not drawn) [Compound B12] | 3 to 50 | 0.3 to 3
11 | COc1cc2ccc1OCCNC(=O)[C@H](Cc1ccccc1)NC(=O)[C@]1(C)Oc3ccc(cc3NC1=O)Nc1nc(ncc1F)N2 [Compound B25] | 0.3 to 3 | –
12 | COc1ccc2cc1Nc1ncc(F)c(n1)Nc1ccc3c(c1)NC(=O)C(C)(O3)C(=O)NCCNC2=O (stereo not drawn) [Compound B19] | 0.3 to 3 | –
13 | COc1cc2cc(c1)NC(=O)CN(C)C(=O)C1(C)Oc3ccc(cc3NC1=O)Nc1nc(ncc1F)C2 (stereo not drawn) [Compound B2] | < 0.3 | –
14 | CN1CC(=O)N(C)c2cccc(c2)Nc2ncc(F)c(n2)Nc2ccc3c(c2)NC(=O)C(C)(O3)C1=O (stereo not drawn) [Compound B1] | 3 to 50 | –
15 | CN1CC(=O)Nc2cccc(c2)Nc2ncc(F)c(n2)Nc2ccc3c(c2)NC(=O)[C@@](C)(O3)C1=O (single isomer, unassigned) [Compound 16] | 0.3 to 3 | 3 to 50
16 | COc1cc2c3cc1Nc1ncc(F)c(n1)Nc1ccc4c(c1)NC(=O)C(C)(O4)C(=O)NCCN(C)CC(=O)N3CC2 (stereo not drawn) [Compound B7] | 3 to 50 | –
17 | CN1CC(=O)Nc2cccc(c2)Nc2ncc(F)c(n2)Nc2ccc3c(c2)NC(=O)C(C)(O3)C1=O (racemic) [Compound 15] | < 0.3 | 0.3 to 3
18 | CC12Oc3ccc(cc3NC1=O)Nc1nc(ncc1F)Nc1cccc(c1)NC(=O)N1CCC[C@H]1C(=O)NCCCNC2=O (stereo partly drawn) [Compound B17] | 3 to 50 | –
19 | CC12CCOC(=O)Nc3cccc(c3)Nc3ncc(F)c(n3)Nc3ccc(c(c3)NC1=O)O2 (stereo not drawn) [Compound 6] | < 0.3 | –
